For 28 molecules, IC50 results are on record in patent US9133204B2, “5-membered heterocyclic amides and related compounds” (H. Lundbeck A/S, priority 2007, dated 2015).

The assay deals with T1, P2X7 receptor (Homo sapiens, UniProt Q99572).
T1 construct: host or cells: SH-SY5Y
T1 sequence (Q99572 1-595): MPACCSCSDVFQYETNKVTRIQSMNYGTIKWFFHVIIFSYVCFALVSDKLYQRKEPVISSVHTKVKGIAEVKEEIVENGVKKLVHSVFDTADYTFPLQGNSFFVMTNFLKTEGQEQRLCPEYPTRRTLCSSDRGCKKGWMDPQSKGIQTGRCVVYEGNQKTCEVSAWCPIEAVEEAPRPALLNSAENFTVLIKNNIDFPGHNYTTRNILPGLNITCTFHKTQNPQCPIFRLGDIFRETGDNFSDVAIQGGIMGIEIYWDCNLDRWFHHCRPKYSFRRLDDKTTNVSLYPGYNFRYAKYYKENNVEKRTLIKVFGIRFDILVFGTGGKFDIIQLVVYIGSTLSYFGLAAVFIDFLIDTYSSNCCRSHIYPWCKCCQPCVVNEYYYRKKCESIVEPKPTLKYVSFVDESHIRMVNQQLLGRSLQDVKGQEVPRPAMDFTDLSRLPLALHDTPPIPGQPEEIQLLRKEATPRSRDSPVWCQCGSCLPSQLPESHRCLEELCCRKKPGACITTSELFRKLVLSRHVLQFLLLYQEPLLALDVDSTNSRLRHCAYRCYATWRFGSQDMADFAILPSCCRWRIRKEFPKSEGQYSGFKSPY
As to the kind of experiment: High throughput P2X7 calcium mobilization assay (Example 4A). It is filed as cell-based. Particulars: SH-SY5Y cells; 50% decrease in fluorescence response of cells exposed to 80 μM BzATP; flag after the MS data in Examples 1-2. The protocol:
A. High Throughput Assay of P2X7 Receptors
SH-SY5Y cells, ATCC Number CRL-2266, (American Type Culture Collection, Manassas, Va.) are cultured under DMEM/High medium supplemented with 10% FBS, and 10 mM HEPES (Invitrogen Corp., Carlsbad, Calif.) in 5% CO2 and at 37° C. One day prior to the experiment, cells are plated at a density of 100,000 cells/well in a 96 well black/clear TC plate (Corning® Costar®, Sigma-Aldrich Co., St. Louis, Mo.). At the beginning of the experiment, the culture medium is removed and cells are incubated with 50 μL of 2.3 μM Fluo-4 AM dye (Invitrogen Corp.) in the assay solution (5 mM KCl, 9.6 mM NaH2PO4.H2O, 25 mM HEPES, 280 mM sucrose, 5 mM glucose, and 0.5 mM CaCl2; pH is adjusted to 7.4 with NaOH) for an hour at 37° C. After one hour dye incubation, wells are rinsed once with 50 μL assay solution, and are then incubated for an hour at room temperature with 100 μL assay solution containing the test compound. The final concentration of test compound generally ranges from 1 to 2500 nM; for positive control cells, no test compound is added. After the one hour incubation, plates are transferred to a FLIPR^TETRA instrument (Molecular Devices, Sunnyvale, Calif.) for calcium mobilization analysis.
For determination of antagonist activity, 50 μL, of P2X7 agonist (2′(3)-O-(4-benzoyl-benzoyl)adenosine 5′-triphosephate (BzATP; Sigma-Aldrich) in the assay solution is transferred using the FLIPR into the plate, such that the final agonist concentration is 80 μM (about EC50). In negative control cells, 50 μL of assay solution without agonist is added at this stage. The peak fluorescence signal over a 2 minute period is then measured.
First, the average maximum relative fluorescent unit (RFU) response from the negative control wells (no agonist) is subtracted from the maximum response detected for each of the other experimental wells. Second, average maximum RFU response is calculated for the positive control wells (agonist wells).
Background: Calcium flux is commonly read through the fluorescence of an indicator in the cells.
On to `Cc1cnc(-n2cc(C(=O)NCC34CC5CC(CC(C5)C3)C4)c(C)n2)nc1C#N` [1-(4-Cyano-5-methyl-pyrimidin-2-yl)-3-methyl-1H-pyrazole-4-carboxylic acid (adamantan-1-ylmethyl)-amide], for which the IC50 was not above 2000 nM.

As for `Nc1nc(-n2cc(C(=O)NCC34CC5CC(CC(C5)C3)C4)c(C(F)(F)F)n2)ncc1F` [Compound 1, N-(Adamantan-1-ylmethyl)-1-(4-amino-5-fluoropyrimidin-2-yl)-3-(trifluoromethyl)-1H-pyrazole-4-carboxamide], the 50% inhibitory concentration (IC50) was not above 2000 nM.

On to `Nc1nc(-n2cc(C(=O)NCC3(c4cccnc4)CCCCC3)c(C(F)(F)F)n2)ncc1F` [Compound 2, 1-(4-Amino-5-fluoropyrimidin-2-yl)-N-((1-(pyridin-3-yl)cyclohexyl)methyl)-3-(trifluoromethyl)-1H-pyrazole-4-carboxamide], for which the IC50 was not above 2000 nM.

For the molecule `O=C(NCC12CC3CC(CC(C3)C1)C2)c1cn(-c2ncc(F)cn2)nc1C(F)F` [Compound 3, 3-(Difluoromethyl)-1-(5-fluoro-pyrimidin-2-yl)-1H-pyrazole-4-carboxylic acid (adamantan-1-ylmethyl)-amide], the IC50 was not above 2000 nM.

In the case of `Cc1cnc(-n2cc(C(=O)NCC34CC5CC(CC(C5)C3)C4)c(C)n2)nc1C(=O)N1CCOCC1` [Compound 4, N-(Adamantan-1-ylmethyl)-3-methyl-1-[5-methyl-4-(morpholin-4-ylcarbonyl)pyrimidin-2-yl]-1H-pyrazole-4-carboxamide], the IC50 is not above 2000 nM.

For `COc1nn(-c2ncccn2)cc1C(=O)NCC12CC3CC(CC(C3)C1)C2` [Compound 5, N-(Adamantan-1-ylmethyl)-3-methoxy-1-pyrimidin-2-yl-1H-pyrazole-4-carboxamide], the IC50 was not above 2000 nM.

With `Nc1nn(-c2ncccn2)cc1C(=O)NCC12CC3CC(CC(C3)C1)C2` [Compound 6, N-(Adamantan-1-ylmethyl)-3-amino-1-pyrimidin-2-yl-1H-pyrazole-4-carboxamide], the IC50 is not above 2000 nM.

`O=C(NCC12CC3CC(CC(C3)C1)C2)c1cn(-c2ncccn2)nc1Cl` [Compound 7, N-(Adamantan-1-ylmethyl)-3-chloro-1-pyrimidin-2-yl-1H-pyrazole-4-carboxamide]: the IC50 is not above 2000 nM.

Consider `O=C(NCC12CC3CC(CC(C3)C1)C2)c1cnn(-c2ncccn2)c1Cl` [Compound 8, N-(Adamantan-1-ylmethyl)-5-chloro-1-pyridimin-2-yl-1H-pyrazole-4-carboxamide], for which the IC50 is not above 2000 nM.

As for `CC(C)CC(CNC(=O)c1cn(-c2ncccn2)nc1Cl)c1ccc(C(F)(F)F)cc1` (stereo not shown) [Compound 9, 3-Chloro-N-{4-methyl-2-[4-(trifluoromethyl)phenyl]pentyl}-1-pyrimidin-2-yl-1H-pyrazole-4-carboxamide], the IC50 is not above 2000 nM.

With `O=C(NCC1(c2ccc(C(F)(F)F)cc2)CCCCC1)c1cn(-c2ncccn2)nc1Cl` [Compound 10, 3-Chloro-1-pyrimidin-2-yl-N-({1-[4-(trifluoromethyl)phenyl]cyclohexyl}methyl)-1H-pyrazole-4-carboxamide], the IC50 was not above 2000 nM.

With `O=C(NCC1(c2cccnc2)CCCCC1)c1cn(-c2ncccn2)nc1Cl` [Compound 11, 3-Chloro-N-[(1-pyridin-3-ylcyclohexyl)methyl]-1-pyrimidin-2-yl-1H-pyrazole-4-carboxamide], the IC50 is not above 2000 nM.

As for `Cc1ccc(C2(CNC(=O)c3cn(-c4ncccn4)nc3Cl)CCCCC2)cn1` [Compound 12, 3-Chloro-N-{[1-(6-methylpyridin-3-yl)cyclohexyl]methyl}-1-pyrimidin-2-yl-1H-pyrazole-4-carboxamide], the IC50 is not above 2000 nM.

Consider `O=C(NCC1(c2cccnc2)CCCCC1)c1cn(-c2nccn3ccnc23)nc1C(F)(F)F` [Compound 14, 1-Imidazo[1,2-a]pyrazin-8-yl-3-trifluoromethyl-1H-pyrazole-4-carboxylic acid (1-pyridin-3-yl-cyclohexylmethyl)-amide], for which the half-inhibitory concentration (IC50) is not above 2000 nM.

As for `O=C(CC12CC3CC(CC(C3)C1)C2)Nc1cn(-c2ncccn2)nc1C(F)(F)F` [Compound 15, 2-Adamantan-1-yl-N-(1-pyrimidin-2-yl-3-trifluoromethyl-1H-pyrazol-4-yl)-acetamide], the IC50 was not above 2000 nM.

`Cc1nn(C)c(Cc2ccccc2)c1C(=O)NCC12CC3CC(CC(C3)C1)C2` [Compound 16, 5-Benzyl-1,3-dimethyl-1H-pyrazole-4-carboxylic acid (adamantan-1-ylmethyl)-amide]: the IC50 is not above 2000 nM.

As to `O=C(NCC12CC3CC(CC(C3)C1)C2)c1ccnn1Cc1ccccc1` [Compound 17, N-(Adamantan-1-ylmethyl)-1-benzyl-1H-pyrazole-5-carboxamide], the IC50 was not above 2000 nM.

In the case of `Cn1nc(-c2ccccc2)cc1C(=O)NCC1(c2cccnc2)CCCCC1` [Compound 19, 1-Methyl-3-phenyl-N-[(1-pyridin-3-ylcyclohexyl)methyl]-1H-pyrazole-5-carboxamide], the IC50 was not above 2000 nM.

As for `Cc1ccc(C2(CNC(=O)c3cc(-c4ccccc4)nn3C)CCCCC2)cn1` [Compound 20, 1-Methyl-3-phenyl-N-{[1-(methylpyridin-3-yl)cyclohexyl]methyl}-1H-pyrazole-5-carboxamide], the IC50 was not above 2000 nM.

`Cn1nc(-c2ccccc2)cc1C(=O)NCC1(c2ccc(Cl)cc2)CCCCC1` [Compound 21, 1-Methyl-3-phenyl-N-[1-(4-chlorophenyl)cyclohexyl]methyl-1H-pyrazole-5-carboxamide]: the IC50 is not above 2000 nM.

For the molecule `CC(C)CC(CNC(=O)c1sc(-c2ncccn2)nc1C(F)(F)F)c1ccc(Cl)cc1` (stereo not shown) [Compound 22, 4-trifluoromethyl-2-pyrimidin-2-yl-thiazole-5-carboxylic acid[2-(4-chloro-phenyl)-4-methyl-pentyl]-amide], the IC50 is not above 2000 nM.

With `O=C(NCC(c1ccc(Cl)cc1)N1CCCCC1)c1sc(-c2ncccn2)nc1C(F)(F)F` (stereo not shown) [Compound 23, N-[2-(4-chlorophenyl)-2-piperidin-1-ylethyl]-2-pyrimidin-2-yl-4-(trifluoromethyl)-1,3-thiazole-5-carboxamide], the IC50 is not above 2000 nM.

Turning to `CN1CCN(C2(CNC(=O)c3sc(-c4ncccn4)nc3C(F)(F)F)CCCCCC2)CC1` [Compound 24, N-{[1-(4-methylpiperazin-1-yl)cycloheptyl]methyl}-2-pyrimidin-2-yl-4-(trifluoromethyl)-1,3-thiazole-5-carboxamide], the IC50 was not above 2000 nM.

Regarding `O=C(NCC1(c2cccnc2)CCCCC1)c1sc(N2CCCCS2(=O)=O)nc1C(F)(F)F` [Compound 26, 2-(1,1-Dioxido-1,2-thiazinan-2-yl)-N-[(1-pyridin-3-ylcyclohexyl)methyl]-4-(trifluoromethyl)-1,3-thiazole-5-carboxamide], the IC50 is not above 2000 nM.

For the molecule `CN(C)[C@@H]1CCN(c2nc(C(F)(F)F)c(C(=O)NCC3(c4cccnc4)CCCCC3)s2)C1` [Compound 27, 2-((R)-3-Dimethylamino-pyrrolidin-1-yl)-4-trifluoromethyl-thiazole-5-carboxylic acid (1-pyridin-3-yl-cyclohexylmethyl)-amide], the IC50 is not above 2000 nM.

On to `COc1ccc(-c2nc(C(F)(F)F)c(C(=O)NCC3(c4cccnc4)CCCCC3)s2)cn1` [Compound 28, 2-(6-methoxy-pyridin-3-yl)-4-trifluoromethyl-thiazole-5-carboxylic acid (1-pyridin-3-yl-cyclohexylmethyl)-amide], for which the IC50 was not above 2000 nM.

Turning to `Cc1nc(-c2cccnc2)sc1C(=O)NCC1(c2ccc(Cl)cc2)CCCCC1` [Compound 29, N-{[1-(4-Chlorophenyl)cyclohexyl]methyl}-4-methyl-2-pyridin-3-yl-1,3-thiazole-5-carboxamide], the IC50 is not above 2000 nM.

On to `Cc1nc(-c2cccnc2)sc1C(=O)NCC(CC(C)C)c1ccc(C(F)(F)F)cc1` (stereo not shown) [Compound 30], for which the IC50 is not above 2000 nM.

By IC50 is commonly meant the point on the concentration scale where inhibition reaches its midpoint.
